Laboratory results taken from patent US11298363B2, “Triazolobenzazepines as vasopressin V1a receptor antagonists” (RICHTER GEDEON NYRT., priority 2017, dated 2022).
Counter-ions that a name gives are not always drawn.

Columns and labels:
[1] = molecular target: T1, human vasopressin V1a receptor (Homo sapiens, UniProt P37288); assay: Human vasopressin V1a receptor binding assay; settings: 1321N1 cell membranes, [3H]vasopressin; read-out: Ki (nM) on hV1a cell line
How it was run: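 Ki values come from IC50 via Cheng-Prusoff (KD from prior Scatchard), averaged over at least two independent runs. Human V1a membranes were incubated with radioligand 60 minutes at 27° C., bound ligand collected by filtration; (Arg^8)-vasopressin at 1.2×10^−6 M defined non-specific binding.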

[2] = molecular target: T1, human vasopressin V1a receptor; assay: Functional assay on human vasopressin V1a receptor expressing cell line (intracellular Ca2+ fluorescence); format: cell-based; settings: 1321N1 cells, (Arg8)-vasopressin at EC80; read-out: IC50 (nM) on hV1a cell line

T1 sequence (P37288 whole entry): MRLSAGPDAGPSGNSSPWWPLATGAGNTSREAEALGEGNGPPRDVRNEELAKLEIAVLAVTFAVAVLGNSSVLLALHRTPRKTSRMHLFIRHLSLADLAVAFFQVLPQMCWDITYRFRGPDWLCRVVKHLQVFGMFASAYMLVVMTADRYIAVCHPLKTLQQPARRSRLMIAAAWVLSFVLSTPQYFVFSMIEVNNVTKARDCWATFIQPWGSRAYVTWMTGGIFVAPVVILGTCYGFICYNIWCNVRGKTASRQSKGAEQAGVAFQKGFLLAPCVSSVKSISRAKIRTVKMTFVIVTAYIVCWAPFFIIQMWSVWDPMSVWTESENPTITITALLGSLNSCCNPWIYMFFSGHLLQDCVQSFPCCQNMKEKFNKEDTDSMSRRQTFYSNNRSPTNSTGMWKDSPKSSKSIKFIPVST

Ki [1]	IC50 [2]	Compound
23 nM	410 nM	CC(C)NC1Cc2cc(Br)ccc2-n2c(nnc2[C@H]2CC[C@H](C(F)(F)F)CC2)C1 (stereo partly drawn) [Example 46, 8-bromo-N-(propan-2-yl)-1-[trans-4-(trifluoromethyl)cyclohexyl]-5,6-dihydro-4H-[1,2,4]triazolo[4,3-a][1]benzazepine-5-amine]
1.3 nM	9.2 nM	COC1Cc2cc(Cl)ccc2-n2c(nnc2N2CCN(c3ccccn3)CC2)C1 (stereo not drawn) [Example 232, 8-chloro-5-methoxy-1-[4-(pyridin-2-yl)piperazin-1-yl]-5,6-dihydro-4H-[1,2,4]triazolo[4,3-a][1]benzazepine]
1.6 nM	3.3 nM	CN1C[C@]2(CC[C@H](c3nnc4n3-c3ccc(Cl)cc3CC3(C4)OCCO3)CC2)OC1=O [Example 73, (cis)-8-(8′-chloro-4′H,6′H-spiro[1,3-dioxolane-2,5′-[1,2,4]triazolo[4,3-a][1]benzazepine]-1′-il)-3-methyl-1-oxa-3-azaspiro[4.5]decan-2-one]
5.9 nM	23 nM	O=C1Cc2ccccc2-n2c(nnc2[C@H]2CC[C@H](Oc3ccccn3)CC2)C1 [Example 102, 1-[trans-4-(pyridin-2-yloxy)cyclohexyl]-4H-[1,2,4]triazolo[4,3-a][1]benzazepin-5(6H)-one]
21 nM	305 nM	NC1Cc2cc(Cl)ccc2-n2c(nnc2[C@H]2CC[C@H](N3CCOCC3)CC2)C1 (stereo partly drawn) [Example 113, 8-chloro-1-[trans-4-(morpholin-4-yl)cyclohexyl]-5,6-dihydro-4H-[1,2,4]triazolo[4,3-a][1]benzazepin-5-amine]
19 nM	416 nM	COC1Cc2cc(Cl)ccc2-n2c(nnc2[C@H]2CC[C@H](N3CCN(C)CC3)CC2)C1 (stereo partly drawn) [Example 182, 8-chloro-5-methoxy-1-[trans-4-(4-methylpiperazin-1-yl)cyclohexyl]-5,6-dihydro-4H-[1,2,4]triazolo[4,3-a][1]benzazepine]
0.5 nM	3.1 nM	CC[C@]1(OC)CC[C@@H](c2nnc3n2-c2ccc(Cl)cc2CC2(C3)OCCO2)CC1 [Example 240, 8′-chloro-1′-(cis-4-ethyl-4-methoxycyclohexyl)-4′H,6′H-spiro[1,3-dioxolane-2,5′-[1,2,4]triazolo[4,3-a][1]benzazepine]]
5 nM	45 nM	N[C@H](C(=O)N[C@@H]1Cc2cc(Cl)ccc2-n2c(nnc2[C@H]2CC[C@H](Oc3ccccn3)CC2)C1)c1ccccc1 [Example 13, (2S)-2-amino-N-{(5R)-8-chloro-1-[trans-4-(pyridin-2-yloxy)cyclohexyl]-5,6-dihydro-4H-[1,2,4]triazolo[4,3-a][1]benzazepin-5-yl}-2-phenylacetamide]
4.4 nM	44 nM	Fc1ccc(CN[C@H]2Cc3cc(Cl)ccc3-n3c(nnc3[C@H]3CC[C@H](Oc4ccccn4)CC3)C2)cc1 [Example 83, (S-8-chloro-N-4-fluorobenzyl)-1-[trans-4-pyridin-2-loxcyclohexyl]-5,6-dihydro-4H-[1,2,4]triazolo[4,3-a][1]benzazepine-5-amine]
0.5 nM	0.8 nM	CC(C)N1CC[C@]2(CC[C@@H](c3nnc4n3-c3ccc(Cl)cc3CC3(C4)OCCO3)CC2)C1=O [Example 115]
1 nM	12 nM	OC1Cc2ccccc2-n2c(nnc2[C@H]2CC[C@H](Oc3ccccn3)CC2)C1 (stereo partly drawn) [Example 107, 1-[trans-4-(pyridin-2-yloxy)cyclohexyl]-5,6-dihydro-4H-[1,2,4]triazolo[4,3-a][1]benzazepin-5-ol]
38 nM	870 nM	NC1Cc2cc(Br)ccc2-n2c(nnc2[C@H]2CC[C@H](C(F)(F)F)CC2)C1 (stereo partly drawn) [Example 45, 8-bromo-1-[trans-4-(trifluoromethyl)cyclohexyl]-5,6-dihydro-4H-[1,2,4]triazolo[4,3-a][1]benzazepine-5-amine]
79 nM	442 nM	O=C(N[C@H]1Cc2cc(Cl)ccc2-n2c(nnc2[C@H]2CC[C@H](Oc3ccccn3)CC2)C1)C1CCC1 [Example 121, N-{(5S)-8-chloro-1-[trans-4-(pyridin-2-yloxy)cyclohexyl]-5,6-dihydro-4H-[1,2,4]triazolo[4,3-a][1]benzazepin-5-yl}cyclobutanecarboxamide]
0.3 nM	1.4 nM	O=C(N[C@@H]1Cc2cc(Cl)ccc2-n2c(nnc2[C@H]2CC[C@H](Oc3ccccn3)CC2)C1)C(F)(F)F [Example 217, N-{(5R)-8-chloro-1-[trans-4-(pyridin-2-yloxy)cyclohexyl]-5,6-dihydro-4H-[1,2,4]triazolo[4,3-a][1]benzazepin-5-yl}-2,2,2-trifluoroacetamide]
45.4 nM	213 nM	CC(C)(C)OC(=O)NC1Cc2cc(Cl)ccc2-n2c(nnc2[C@H]2CC[C@H](N3CCOCC3)CC2)C1 (stereo partly drawn) [Example 112, Tert-butyl {8-chloro-1-[trans-4-(morpholin-4-yl)cyclohexyl]-5,6-dihydro-4H-[1,2,4]triazolo[4,3-a][1]benzazepin-5-yl}carbamate]
114 nM	1190 nM	CN1CCC(C(=O)N[C@H]2Cc3cc(Cl)ccc3-n3c(nnc3[C@H]3CC[C@H](Oc4ccccn4)CC3)C2)CC1 [Example 200]
0.7 nM	2.1 nM	CC(C)N1CC[C@]2(CC[C@@H](c3nnc4n3-c3ccc(Cl)cc3CC(O)C4)CC2)C1=O (stereo partly drawn) [Example 116, (5r,8r)-8-(8-chloro-5-hydroxy-5,6-dihydro-4H-[1,2,4]triazolo[4,3-a][1]benzazepin-1-yl)-2-(propan-2-yl)-2-azaspiro[4,5]decan-1-one]
70 nM	825 nM	CC(C)C(=O)NC1Cc2cc(Cl)ccc2-n2c(nnc2C2CCN(c3ccccn3)CC2)C1 (stereo not drawn) [Example 4]
10.1 nM	210 nM	COC1(C)CCC(c2nnc3n2-c2ccc(Cl)cc2CC(NC(C)C)C3)CC1 (mixture of isomers) [Example 203, 8-chloro-1-(4-methoxy-4-methylcyclohexyl)-N-(propan-2-yl)-5,6-dihydro-4H-[1,2,4]triazolo[4,3-a][1]benzazepin-5-amine]
6.9 nM	53 nM	CC[C@]1(OC)CC[C@H](c2nnc3n2-c2ccc(Cl)cc2CC(N(C)C)C3)CC1 (stereo partly drawn) [Example 233, 8-chloro-1-(trans-4-ethyl-4-methoxycyclohexyl)-N,N-dimethyl-5,6-dihydro-4H-[1,2,4]triazolo[4,3-a][1]benzazepin-5-amine]
1.8 nM	12 nM	NCC(=O)NC1Cc2cc(Cl)ccc2-n2c(nnc2[C@H]2CC[C@H](Oc3ccccn3)CC2)C1 (stereo partly drawn) [Example 10, N-{8-chloro-1-[trans-4-(pyridin-2-yloxy)cyclohexyl]-5,6-dihydro-4H-[1,2,4]triazolo[4,3-a][1]benzazepin-5-yl}glycinamide]
34 nM	168 nM	NC1Cc2ccccc2-n2c(nnc2[C@H]2CC[C@H](Oc3ccccn3)CC2)C1 (stereo partly drawn) [Example 144, 1-[trans-4-(pyridin-2-yloxy)cyclohexyl]-5,6-dihydro-4H-[1,2,4]triazolo[4,3-a][1]benzazepin-5-amine]
2.5 nM	57 nM	O=C1Cc2cc(Br)ccc2-n2c(nnc2[C@H]2CC[C@H](C(=O)N3CCCCC3)CC2)C1 [Example 87, 8-bromo-1-[trans-4-(piperidin-1-ylcarbonyl)cyclohexyl]-4H-[1,2,4]triazolo[4,3-a][1]benzazepin-5(6H)-one]
2.1 nM	35 nM	CN(C)CC(=O)NC1Cc2cc(Cl)ccc2-n2c(nnc2[C@H]2CC[C@H](Oc3ccccn3)CC2)C1 (stereo partly drawn) [Example 17, N-{8-chloro-1-[trans-4-(pyridin-2-yloxy)cyclohexyl]-5,6-dihydro-4H-[1,2,4]triazolo[4,3-a][1]benzazepin-5-yl}-N^2,N^2-dimethylglycinamide]
26.5 nM	205 nM	CC(C)NC1Cc2cc(Cl)ccc2-n2c(nnc2[C@H]2CC[C@H](N3CCOCC3)CC2)C1 (stereo partly drawn) [Example 114]
9.3 nM	130 nM	CC(C)(C)OC(=O)NC1Cc2cc(Cl)ccc2-n2c(nnc2N2CCN(c3ncccc3Cl)CC2)C1 (stereo not drawn) [Example 139, Tert-butyl {8-chloro-1-[4-(3-chloropyridin-2-yl)piperazin-1-yl]-5,6-dihydro-4H-[1,2,4]triazolo[4,3-a][1]benzazepin-5-yl}carbamate]
0.9 nM	8.4 nM	CC(C)NC1Cc2cc(Br)ccc2-n2c(nnc2[C@H]2CC[C@H](Oc3ccccn3)CC2)C1 (stereo partly drawn) [Example 40, 8-bromo-N-(propan-2-yl)-1-[trans-4-(pyridin-2-yloxy)cyclohexyl]-5,6-dihydro-4H-[1,2,4]triazolo[4,3-a][1]benzazepine-5-amine]
1.8 nM	34 nM	CC(C)CN[C@H]1Cc2cc(Cl)ccc2-n2c(nnc2[C@H]2CC[C@H](Oc3ccccn3)CC2)C1 [Example 161, (5S)-8-chloro-N-(2-methylpropyl-1-[trans-4-pyridin-2-yloxy)cyclohexyl]-5,6-dihydro-4H-[1,2,4]triazolo[4,3-a][1]benzazepin-5-amine]
0.5 nM	2.9 nM	Clc1ccc2c(c1)CC1(Cc3nnc([C@H]4CC[C@H](N5CCOCC5)CC4)n3-2)OCCO1 [Example 162, 8′-chloro-1′-[trans-4-(morpholin-4-yl)cyclohexyl]-4′H,6′H-spiro[1,3-dioxolane-2,5′-[1,2,4]triazolo[4,3-a][1]benzazepine]hydrochloride]
2 nM	30 nM	Cc1ccc2c(c1)CC(NC(C)C)Cc1nnc([C@H]3CC[C@H](Oc4ccccn4)CC3)n1-2 (stereo partly drawn) [Example 38, 8-methyl-N-(propan-2yl)-1-[trans-4-(pyridin-2-yloxy)cyclohexyl]-5,6-dihydro-4H-[1,2,4]triazolo[4,3-a][1]benzazepine-5-amine]
